Laboratory results as given in patent US12679842B2, “HCK as a therapeutic target in MYD88 mutated diseases” (Dana-Farber Cancer Institute, Inc., priority 2019, dated 2026).

Key:
[1] = system: BTK C481S expressing lentiviral vector transduced TMD8 ABC-DLBCL cells; test: CellTiter-Glo cell viability assay in BTK WT or BTK C481S transduced TMD8 cells; format: cell-based; details: MYD88 mutated ABC DLBCL cells (TMD8), 72 hrs, FIG. 4
[2] = system: BTK C481S expressing lentiviral vector transduced BCWM.1 WM cells; test: CellTiter-Glo cell viability assay in BTK WT or BTK C481S transduced BCWM.1 cells; format: cell-based; details: MYD88 mutated WM cells (BCWM.1), 72 hrs, FIG. 4

With `CN1CCN(C2CCC(n3nc(-c4ccc(Oc5ccccc5)cc4)c4c(N)nccc43)CC2)CC1` (centres unmarked) [Compound I-4] the “drug dose-response in BTK C481S expressing cells (ibrutinib resistance)” value [1] was “overcomes BTKC481S mediated ibrutinib resistance” and the “drug dose-response in BTK C481S expressing cells (ibrutinib resistance)” value [2] was “overcomes BTKC481S mediated ibrutinib resistance”.
